The Papp is a coefficient for how fast a substance crosses the barrier. Low values mean slow passage, high ones fast passage.

The series can be described thus: passive permeability, PAMPA, ADME assay (AID 1508612). To be noted: pH 7.4, 30.0 min, 50.0 µM. (PAMPA measures passive passage across an artificial lipid membrane.)
Consider `Cc1ccc(S(=O)(=O)Nc2cnccc2C(=O)Nc2nc(-c3ccc(F)cc3)cs2)cc1`, for which the Papp stood at 4230 nm/s.
Consider `CCOc1cc2c(cc1OCC)CN(C(=O)c1cc3sccc3n1Cc1ccccc1)CC2`, for which the Papp was greater than 10000 nm/s.
`O=[S+]([O-])(Nc1ccc(C2CCNCC2)cc1)c1ccc(NCc2ccc(Cl)cc2O)cc1` registered a Papp of 22.1 nm/s.
`CC1CCC(NC(=O)c2ccc3c(c2)N(Cc2ccccc2F)C(=O)c2ccccc2S3)CC1` (configuration not stated) returned a Papp of 27 nm/s.
`O=C1Nc2ccccc2C12CC2c1cc(Cl)c(O)c(Cl)c1` (configuration not stated): the Papp amounted to 2780 nm/s.
`CCN(CCN(C)C)C(=O)C1CCN(S(=O)(=O)c2c(C)noc2/C=C/c2ccccc2F)CC1`: the Papp was greater than 10000 nm/s.
Regarding `C[C@@]1(c2ncncc2F)NC(=O)c2cc(-c3cn[nH]c3)ccc21`, the Papp stood at 521 nm/s.
Consider `c1cc(OCCN2CCCCC2)cc(-c2n[nH]c3ccc(-c4ncn[nH]4)cc23)c1`, for which the Papp was less than 10 nm/s.
With `CCOc1ccc(CCNC(=O)c2cc3cnccc3n2Cc2cccc(C)c2)cc1OCC`, the Papp was found to be 1840 nm/s.
The same measure for `CCc1oc2ccccc2c1C(=O)c1cc(Br)c(O)c(Br)c1`: 620 nm/s; for `Cc1ccc(OCCn2c(CCNC(=O)c3ccc(Cl)cc3)nc3ccccc32)cc1`: 7540 nm/s; for `Cc1cccc(S(=O)(=O)c2cn(Cc3ccccc3)c3cc(N4CCCC(C)C4)c(F)cc3c2=O)c1` (configuration not stated): greater than 10000 nm/s.

Source of the values: PubChem BioAssay AID1508612.
